Read-outs that look alike come from different tables or passages of the source.
Biological target: T1, His-tagged Bcl-2 (Homo sapiens, UniProt P10415)
T1 construct: gene BCL2; commercial His-tagged Bcl-2 protein (Abcam); tag kept
Assay: competitive ELISA, His-tagged Bcl-2 vs immobilised biotinylated Bim peptide
Format: binding
Settings: read-out: ELISA IC50 (μM) ^1

[1] = competition with Bim peptide (residues 81–106), 20 nM Bcl-2, PBS, room temperature

T1 sequence (P10415 whole entry): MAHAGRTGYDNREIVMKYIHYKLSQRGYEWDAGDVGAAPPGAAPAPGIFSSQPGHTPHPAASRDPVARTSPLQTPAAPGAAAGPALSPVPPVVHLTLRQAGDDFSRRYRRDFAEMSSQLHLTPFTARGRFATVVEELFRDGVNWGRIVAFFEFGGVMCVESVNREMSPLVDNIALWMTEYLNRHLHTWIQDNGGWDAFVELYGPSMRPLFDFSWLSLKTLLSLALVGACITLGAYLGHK

Row | IC50 [1] [µM] | IC50 [µM] | SMILES
1 | 1.93 ± 0.007 |  | Cc1ccc(Nc2nnc(-c3cc(-c4ccc(Br)cc4)nc4ccccc34)o2)cc1 [6c]
2 |  | 14.5 ± 1.2 | O=[N+]([O-])c1ccc(Nc2nnc(-c3cc(-c4ccc(Br)cc4)nc4ccccc34)o2)cc1 [6d]
3 | 0.15 ± 0.02 |  | COc1ccc2nc(-c3ccc(Br)cc3)cc(-c3nnc(Nc4ccc([N+](=O)[O-])cc4)o3)c2c1 [6i]
